{"source": "patent US20170362184A1", "about": "“PRO-SURVIVAL COMPOUNDS” (University Court of The University of Glasgow, priority 2014, published 2017)", "key": {"hESC line H1": {"system": "hESC line H1", "assay": "cell survival 24 hrs post enzymatic passage", "assay_type": "cell-based, human", "conditions": "enzymatically passaged, 24 hrs post passage, mean ±SEM, n=3", "experimental": "(§1) Enzymatic passage of hPSC methodology 1. 24 hrs prior to passage (around 70-80% confluence), supply 1 well of near confluent hPSC with 2 ml StemPro supplemented with 30 μM SC332 (done during usual daily feed). 2. At point of passage, remove media and wash cells 1× in PBS (−/−). 3. Add 1.5 ml of TrypLE Select (1×) to well and return to incubator for 2-5 mins to dissociate to single cells. 4. Add 1.5 ml of StemPro to deactivate TrypLE Select and pipette gently using a 5 ml serological pipette (to dissociate any remaining clumps). 5. Transfer cells to 15 ml conical bottomed tube and centrifuge for 3 mins at 300 g. 6. Aspirate as much supernatant as possible and resuspend cell pellet by gently flicking. 7. Resuspend cells in PBS (−/−) and centrifuge again for 3 mins at 300 g. 8. Aspirate PBS (−/−) and resuspend cells in 1 ml of StemPro. Gently pipette using serological pipette. 9. Perform a cell count and replate hPSC at a density of 5×10^5 cells per well of a pre-coated 6 well plate. Top up to 2 mls total with StemPro supplemented with 30 μM SC332. Wells are pre-coated with 0.3 mg/ml fibronectin (recombinant vitronectin fragment can also be used). 10. Return cells to incubator and supply with fresh StemPro on a daily basis. 11. 24 hrs prior to subsequent passages (around 70-80% confluence), supply 1 well of PSC with 2 ml StemPro supplemented with 30 μM SC332 (done during usual daily feed). NB SC332 can be used transiently as described above or can be added to culture medium continuously (still at 30 μM).\n(§2) Human pluripotent stem cells (hPSC) were either treated with SC332, Y27632, or left untreated, before being enzymatically passaged. […] In particular, the hESC lines H1, H9 and RC9 and the hiPSC NMF-iPSC6 had cell survival of 72% (±2.9), 73% (±2.8), 69% (±1.9) and 74% (±2.6) respectively when treated with SC332. […] Data shown is the mean survival ±SEM, n=3."}, "hESC line H9": {"system": "hESC line H9", "assay": "cell survival 24 hrs post enzymatic passage", "assay_type": "cell-based, human", "conditions": "enzymatically passaged, 24 hrs post passage, mean ±SEM, n=3", "experimental": "as §1, §2"}, "hESC line RC9": {"system": "hESC line RC9", "assay": "cell survival 24 hrs post enzymatic passage", "assay_type": "cell-based, human", "conditions": "enzymatically passaged, 24 hrs post passage, mean ±SEM, n=3", "experimental": "as §1, §2"}, "hiPSC NMF-iPSC6": {"system": "hiPSC NMF-iPSC6", "assay": "cell survival 24 hrs post enzymatic passage", "assay_type": "cell-based, human", "conditions": "hiPSC NMF-iPSC6, enzymatically passaged, 24 hrs post passage, mean ±SEM, n=3", "experimental": "as §1, §2"}, "hPSC (H1 hESC)": {"system": "hPSC (H1 hESC)", "assay": "cytogenetic stability (karyotype) after 30 consecutive passages", "assay_type": "cell-based, human", "conditions": "H1 hESC treated for 30 consecutive passages", "description": "In addition to this, long term exposure to compound SC332 had no detrimental effect on the karyotypic stability of hPSC (FIGS. 2 and 3)."}, "[1]": {"system": "hPSC (hESC cell line H1 and NMF-iPS6)", "assay": "passive differentiation into three germ layers after 30 passages", "assay_type": "cell-based, human", "conditions": "after 30 consecutive enzymatic passages", "description": "HPSC treated for 30 passages with SC332 or Y27632 were passively differentiated for 2 weeks in suspension culture, followed by 2 weeks adherent culture, fixed and stained for markers of the three germ layers. Control cells that had been mechanically passaged and unexposed to any survival compound were also differentiated and stained in the same way. PAX6 is stained in the left hand column, AFP in the centre column and SMA in the right hand column. All cells were co-stained with DAPI. Scale bar represents 100 μm.\nThe differentiation capacity of hPSC after treatment with SC332 was also assessed. HPSC (hESC cell line H1 and NMF-iPS6) that had been enzymatically passaged with either SC332 or Y27632 for 30 consecutive passages were passively differentiated alongside mechanically maintained cells using a mixture of embryoid body based suspension culture and adherent culture. Differentiated cells were subsequently fixed and stained for markers from each of the three germ layers. […] As expected, untreated mechanically passaged control cells, included as a positive control, were also able to differentiate into each of the three germ layers (FIG. 5)."}, "[2]": {"system": "pMLC in iPSC (cell line NMF-iPS6)", "assay": "western blot of phosphorylated myosin light chain (pMLC) after dissociation", "assay_type": "cell-based, human", "conditions": "15 mins post-dissociation, compared with untreated cells", "experimental": "Protein samples were taken from iPSC (cell line NMF-iPS6) that were treated with SC332, Y27632 or had no treatment (control) before being dissociated. Samples were harvested 15 mins, 30 mins, 45 mins, 1 hr, 2 hr and 4 hr post dissociation. Western blot analysis was performed. […] Data shown as mean±SEM, n=3."}, "PRK2": {"molecular_target": "PRK2 (Homo sapiens, UniProt Q16513)", "sequence (Q16513 501-984 limits assumed, species assumed)": "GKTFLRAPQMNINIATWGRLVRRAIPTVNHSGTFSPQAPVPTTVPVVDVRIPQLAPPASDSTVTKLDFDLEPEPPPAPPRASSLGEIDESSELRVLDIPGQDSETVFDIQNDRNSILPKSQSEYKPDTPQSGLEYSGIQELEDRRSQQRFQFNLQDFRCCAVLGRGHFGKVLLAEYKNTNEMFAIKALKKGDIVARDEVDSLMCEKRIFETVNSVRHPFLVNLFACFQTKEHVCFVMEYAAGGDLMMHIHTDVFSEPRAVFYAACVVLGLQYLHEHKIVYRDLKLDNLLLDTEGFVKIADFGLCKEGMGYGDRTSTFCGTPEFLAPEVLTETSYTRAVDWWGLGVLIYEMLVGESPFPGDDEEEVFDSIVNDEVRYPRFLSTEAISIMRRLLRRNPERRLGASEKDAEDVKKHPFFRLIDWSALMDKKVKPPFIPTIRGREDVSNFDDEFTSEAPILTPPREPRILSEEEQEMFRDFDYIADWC", "assay": "radioactive filter-binding kinase assay (33P-ATP)", "assay_type": "biochemical", "experimental": "(§3) This screen utilises a radioactive filter-binding assay (33P-ATP) to assess the effect of compounds on kinase activity. Results confirmed that SC332 had no inhibitory effect on ROCK2 at a concentration of 10 μM (96% activity. SC332 also had very limited effect on the closely related PRK2, showing 76% and 98% activity when used at 10 μM and 30 μM respectively (FIG. 6)."}, "ROCK2": {"molecular_target": "ROCK2 (Rattus norvegicus, UniProt Q62868)", "sequence (Q62868 2-543 limits assumed)": "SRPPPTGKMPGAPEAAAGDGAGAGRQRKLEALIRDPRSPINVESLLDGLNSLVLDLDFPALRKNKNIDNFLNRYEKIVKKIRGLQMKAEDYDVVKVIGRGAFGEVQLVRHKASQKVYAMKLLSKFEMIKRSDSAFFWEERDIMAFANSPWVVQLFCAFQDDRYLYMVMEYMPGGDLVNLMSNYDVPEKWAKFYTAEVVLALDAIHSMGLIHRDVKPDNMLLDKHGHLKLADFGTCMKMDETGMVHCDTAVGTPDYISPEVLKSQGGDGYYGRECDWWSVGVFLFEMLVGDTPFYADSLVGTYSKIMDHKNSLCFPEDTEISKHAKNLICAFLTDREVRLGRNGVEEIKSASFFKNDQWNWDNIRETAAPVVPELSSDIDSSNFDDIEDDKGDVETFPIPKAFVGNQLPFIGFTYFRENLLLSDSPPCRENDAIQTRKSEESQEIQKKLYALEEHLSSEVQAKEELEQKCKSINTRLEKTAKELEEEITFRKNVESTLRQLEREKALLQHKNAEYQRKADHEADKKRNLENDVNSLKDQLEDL", "assay": "radioactive filter-binding kinase assay (33P-ATP)", "assay_type": "biochemical", "experimental": "as §3"}}, "data": [{"smiles": "C[C@@H](N)[C@H]1CC[C@H](C(=O)Nc2ccncc2)CC1", "note": "[Y27632, reference compound]", "values": [{"measurement": "cell survival", "setting": "hESC line H1", "result": 72, "unit": "%"}, {"measurement": "cell survival", "setting": "hESC line H9", "result": 73, "unit": "%"}, {"measurement": "cell survival", "setting": "hESC line RC9", "result": 71, "unit": "%"}, {"measurement": "cell survival", "setting": "hiPSC NMF-iPSC6", "result": 74, "unit": "%"}, {"measurement": "cytogenetic stability (karyotype)", "setting": "hPSC (H1 hESC)", "result": "karyotypically normal (46, XY)"}, {"measurement": "differentiation towards mesoderm (SMA), endoderm (AFP) or ectoderm (PAX6)", "setting": "[1]", "result": "did not block the differentiation"}, {"measurement": "levels of pMLC relative to α-tubulin", "setting": "[2]", "result": "blocked the increase"}]}, {"smiles": "Cc1cc(NC(=O)Cn2c(NCc3ccccc3)nc3ccccc32)no1", "note": "[SC332, 2-(2-(benzylamino)-1H-benzo[d]imidazol-1-yl)-N-(5-methylisoxazol-3-yl)acetamide]", "values": [{"measurement": "cell survival", "setting": "hESC line H1", "result": 72, "unit": "%"}, {"measurement": "cell survival", "setting": "hESC line H9", "result": 73, "unit": "%"}, {"measurement": "cell survival", "setting": "hESC line RC9", "result": 69, "unit": "%"}, {"measurement": "cell survival", "setting": "hiPSC NMF-iPSC6", "result": 74, "unit": "%"}, {"measurement": "cytogenetic stability (karyotype)", "setting": "hPSC (H1 hESC)", "result": "karyotypically normal (46, XY)"}, {"measurement": "differentiation towards mesoderm (SMA), endoderm (AFP) or ectoderm (PAX6)", "setting": "[1]", "result": "did not block the differentiation"}, {"measurement": "PRK2 activity", "setting": "PRK2; 10 μM", "result": 76, "unit": "% activity"}, {"measurement": "PRK2 activity", "setting": "PRK2; 30 μM", "result": 98, "unit": "% activity"}, {"measurement": "inhibition of PRK2 (in words)", "setting": "PRK2; 30 μM", "result": "did not inhibit"}, {"measurement": "ROCK2 activity", "setting": "ROCK2; 10 μM", "result": 96, "unit": "% activity"}, {"measurement": "inhibition of ROCK2 (in words)", "setting": "ROCK2; 30 μM", "result": "did not inhibit"}, {"measurement": "levels of pMLC relative to α-tubulin", "setting": "[2]", "result": "high levels of pMLC equivalent to those in untreated cells"}]}]}
